Reference: PMC12172877, “Reverse prenylation in plants by non‐canonical aromatic prenyltransferases” (The Plant Journal, 2025)
Like-named read-outs stand apart in the source and are kept apart here.

Key:
Assay in all cases: Michaelis-Menten kinetics, yeast microsomes, HPLC of product […]
[1] = test system: T1, HpRPThxa; assay type: biochemical, Hypericum perforatum; details: Mg2+, optimum pH 9.0-9.5, 40 °C, read-out: apparent KM
T1 construct: gene RPThxa; full-length, 1173 bp ORF, pESC-URA, yeast INVSc1 microsomes

[2] = test system: T2, HsRPThxa; assay type: biochemical, Hypericum sampsonii; details: Mg2+, optimum pH 9.0-9.5, 35 °C, read-out: apparent KM
T2 construct: gene RPThxa; full-length, 1176 bp ORF, pESC-URA, yeast INVSc1 microsomes

[3] = test system: T3, HsRPThxa-tr; assay type: biochemical, Hypericum sampsonii; details: optimum pH 9.0-10.0, 40 °C, read-out: apparent KM
T3 construct: gene RPThxa; lacks the N-terminal 24 residues (transit peptide), yeast microsomes

[4] = formation of hyperixanthone A (C-4 reverse prenylation), co-substrate DMAPP

Row | Km ([1]; co-substrate patulone) [µM] | Km ([2]; co-substrate patulone) [µM] | Km ([3]; co-substrate patulone) [µM] | Km [1, 4] [µM] | Km [2, 4] [µM] | Km ([3]; co-substrate DMAPP) [µM] | Structure (SMILES)
1 | 260 ± 22.9 | 102 ± 6.35 | 30.9 ± 2.58 | – | – | – | CC(C)=CCOP(=O)(O)OP(=O)(O)O [DMAPP]
2 | – | – | – | 46 ± 4.43 | 52.4 ± 4.16 | 31.3 ± 4.05 | CC(C)=CCC1(CC=C(C)C)C(=O)C(O)=Cc2oc3cc(O)cc(O)c3c(=O)c21 [compound 2, patulone]
